Source: PubChem BioAssay AID2060616 (Molecular Pharmacology Branch, DTP, NCI, 2025)

System: 377384-186-R-J1-PDC complex spheroid viability
Assay: Anticancer human tumor 377384-186-R-J1-PDC patient-derived pancreatic carcinoma cell line growth inhibition [CLK]
Settings: for IC50: curve of first compound; for viability, T/C: stronger effect = lower value; active = viability on the fitted dose curve at most 10% of control; inactive = the rest
Text: A high-throughput screen of multi-cell type tumor spheroids was designed to identify active combinations of […] and targeted small molecules. Complex spheroids include a stromal component modeled by human endothelial cells (HUVEC) and fibroblasts modeled by human mesenchymal stem cells (MSCs). The concentration ranges selected for each drug and investigational agent were based upon clinically achievable concentrations if the clinical Cmax of the agent was known.
Compounds. The drugs and investigational agents: cirtuvivint (SM08502; NSC835563), CC-671 (NSC850746), vemurafenib (NSC761431), tapotoclax (NSC804041), sotorasib (NSC818433), adagrasib (NSC831453), MRTX-1133 (NSC836407), BAY2416964 (NSC825713), copanlisib (NSC816437), inavolisib (NSC800729), abemaciclib (NSC768073), osimertinib (NSC779217), entinostat (NSC756642), eltanexor (KPT-8602, NSC794443), venetoclax (NSC766270), ceralasertib (NSC777638), bortezomib (NSC756655), olaparib (NSC753686), talazoparib (NSC767125), alisertib (NSC759677), peposertib (NSC802822), gemcitabine (NSC613327), 5-fluorouracil (NSC19893), SN-38 (NSC673596), oxaliplatin (NSC266046), paclitaxel (NSC125973), and doxorubicin (NSC123127), were obtained from the National Cancer Institute (NCI) Developmental Therapeutics Program Chemical Repository. The FDA-approved anticancer drug set is available from the Developmental Therapeutics Program at https://dtp.cancer.gov/organization/dscb/obtaining/available plates.htm. […] The stock solutions were prepared in dimethyl sulfoxide (DMSO, Sigma-Aldrich, St. Louis, MO, cat. D2650), except for the platinum complexes which were prepared in saline (Quality Biological, Gaithersburg, MD, cat. 114-055-101), at 800-fold the tested concentration and stored at -70 degrees C prior to their use. All drugs and investigational agents were tested over a range starting from a high concentration at or near the clinical Cmax and decreasing in half-log increments. If the clinical Cmax for an agent had not been determined, the highest concentration tested was 10 microM.
Cell Culture. All cells were maintained in an incubator at 37 degrees C and 5% CO2 with 95% humidity. The PDC lines were cultured according to standard operating procedures established by the NCI PDMR. Briefly, all PDCs were thawed and cultured in Matrigel-coated flasks prepared with a working solution of 1X Ham's F-12 nutrient mix, without supplementation (Invitrogen, Waltham, MA, cat. 11765054), 100 U/mL penicillin-streptomycin (Invitrogen, cat. 15140122), and 2.5% Matrigel (Corning Inc., Corning, NY, cat. 354248) for the first three passages. The 947758-054-R-J2-PDC line was cultured in 6B/Colon 1A media, which includes advanced DMEM/F-12 (Thermo Fisher Scientific, cat. 12634028), 10 mM HEPES (Thermo Fisher Scientific, cat. 15630080), 1X GlutaMAX supplement (Thermo Fisher Scientific, cat. 35050061), 0.1 mg/mL primocin (InvivoGen, cat. ant-pm-2), 10% defined fetal bovine serum, heat inactivated (HyClone Laboratories Inc., cat. SH30070.03HI), 1.25 mM N-Acetyl-L-cysteine (Sigma-Aldrich, cat. A9165), 10 mM nicotinamide (Sigma-Aldrich, cat. N0636), 1X B-27 supplement (Thermo Fisher Scientific, cat. 17504044), 1X N-2 supplement (Thermo Fisher Scientific, cat. 17502048), and 10 microM Y-27632 dihydrochloride (Tocris Bioscience, cat. 1254). The 876862-298-R-J1-PDC was cultured in 6E media, which includes all 6B/Colon 1A media components plus 50% L-WRN conditioned media (ATCC, cat. CRL-3276), 50 ng/mL recombinant human EGF recombinant protein (hEGF; Thermo Fisher Scientific, cat. PHG0311), 10 ng/mL recombinant human fibroblast growth factor 10 (hGFG-10; PeproTech, cat. 100-26), 1 ng/mL recombinant human fibroblast growth factor 2 (hFGF-2; PeproTech, cat. 100-18B), and 1 µM prostaglandin E2 (PGE2; Tocris, cat. 2296). The 227483-062-R1-J1-PDC line was cultured in Panc media, containing all 6E components except hFGF-2, with the addition of 500 nM SB-431542 (Selleckchem, cat. S1067) and 10 nM gastrin (Tocris, cat. 3006). […]
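Note: spheroids exposed to agents for 7 days before reading.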
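Throughout, for viability, T/C: luminescence signal used as a stand-in for viable cells.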

C=CC(=O)Nc1cc(Nc2nccc(-c3cn(C)c4ccccc34)n2)c(OC)cc1N(C)CCN(C)C + CN1CCN(c2cc(C(=O)Nc3cc4cc(-c5cnn(C)c5)ccc4cn3)ccn2)CC1
active: viability, T/C (second compound 1 µM, first compound 0.000949 µM) 1.11% | viability, T/C (second compound 1 µM, first compound 0.003 µM) 1.28% | viability, T/C (second compound 1 µM, first compound 0.00949 µM) 2.15% | viability, T/C (second compound 1 µM, first compound 0.03 µM) 1.55% | viability, T/C (second compound 1 µM, first compound 0.0949 µM) 1.26% | viability, T/C (second compound 1 µM, first compound 0.3 µM) 1.63% | viability, T/C (second compound 3.16 µM, first compound 0.000949 µM) 0.48% | viability, T/C (second compound 3.16 µM, first compound 0.003 µM) 0.71% | viability, T/C (second compound 3.16 µM, first compound 0.00949 µM) 1.03% | viability, T/C (second compound 3.16 µM, first compound 0.03 µM) 0.37% | viability, T/C (second compound 3.16 µM, first compound 0.0949 µM) 0.75% | viability, T/C (second compound 3.16 µM, first compound 0.3 µM) 2.51% | viability, T/C (second compound 10 µM, first compound 0.000949 µM) 0.83% | viability, T/C (second compound 10 µM, first compound 0.003 µM) 1.36% | viability, T/C (second compound 10 µM, first compound 0.00949 µM) 1.97% | viability, T/C (second compound 10 µM, first compound 0.03 µM) 0.66% | viability, T/C (second compound 10 µM, first compound 0.0949 µM) 2.03% | viability, T/C (second compound 10 µM, first compound 0.3 µM) 0.56%
< 0.949 nM: IC50 (second compound 0.316 µM) | IC50 (second compound 1 µM) | IC50 (second compound 3.16 µM) | IC50 (second compound 10 µM)
> 300 nM: IC50 (second compound 0.0316 µM) | IC50 (second compound 0.1 µM)
inactive: viability, T/C (second compound 0.0316 µM, first compound 0.000949 µM) 91.6% | viability, T/C (second compound 0.0316 µM, first compound 0.003 µM) 100% | viability, T/C (second compound 0.0316 µM, first compound 0.00949 µM) 90.7% | viability, T/C (second compound 0.0316 µM, first compound 0.03 µM) 93.6% | viability, T/C (second compound 0.0316 µM, first compound 0.0949 µM) 79.5% | viability, T/C (second compound 0.0316 µM, first compound 0.3 µM) 76.3% | viability, T/C (second compound 0.1 µM, first compound 0.000949 µM) 109% | viability, T/C (second compound 0.1 µM, first compound 0.003 µM) 99.4% | viability, T/C (second compound 0.1 µM, first compound 0.00949 µM) 83.3% | viability, T/C (second compound 0.1 µM, first compound 0.03 µM) 91.2% | viability, T/C (second compound 0.1 µM, first compound 0.0949 µM) 79.2% | viability, T/C (second compound 0.1 µM, first compound 0.3 µM) 63% | viability, T/C (second compound 0.316 µM, first compound 0.000949 µM) 26.1% | viability, T/C (second compound 0.316 µM, first compound 0.003 µM) 26.6% | viability, T/C (second compound 0.316 µM, first compound 0.00949 µM) 25.1% | viability, T/C (second compound 0.316 µM, first compound 0.03 µM) 26.5% | viability, T/C (second compound 0.316 µM, first compound 0.0949 µM) 23.7% | viability, T/C (second compound 0.316 µM, first compound 0.3 µM) 22.2%

Nc1ccccc1NC(=O)c1ccc(CNC(=O)OCc2cccnc2)cc1 + CN1CCN(c2cc(C(=O)Nc3cc4cc(-c5cnn(C)c5)ccc4cn3)ccn2)CC1
inactive: viability, T/C (second compound 0.0316 µM, first compound 0.0316 µM) 103% | viability, T/C (second compound 0.0316 µM, first compound 0.1 µM) 90% | viability, T/C (second compound 0.0316 µM, first compound 0.316 µM) 76.3% | viability, T/C (second compound 0.0316 µM, first compound 1 µM) 42.4% | viability, T/C (second compound 0.0316 µM, first compound 3.16 µM) 16.2% | viability, T/C (second compound 0.1 µM, first compound 0.0316 µM) 109% | viability, T/C (second compound 0.1 µM, first compound 0.1 µM) 103% | viability, T/C (second compound 0.1 µM, first compound 0.316 µM) 90.8% | viability, T/C (second compound 0.1 µM, first compound 1 µM) 38.9% | viability, T/C (second compound 0.1 µM, first compound 3.16 µM) 17.7% | viability, T/C (second compound 0.316 µM, first compound 0.0316 µM) 30.4% | viability, T/C (second compound 0.316 µM, first compound 0.1 µM) 28.1% | viability, T/C (second compound 0.316 µM, first compound 0.316 µM) 29.1% | viability, T/C (second compound 0.316 µM, first compound 1 µM) 19%
822 nM: IC50 (second compound 0.1 µM)
< 31.6 nM: IC50 (second compound 0.316 µM) | IC50 (second compound 1 µM) | IC50 (second compound 3.16 µM) | IC50 (second compound 10 µM)
780 nM: IC50 (second compound 0.0316 µM)
active: viability, T/C (second compound 0.0316 µM, first compound 10 µM) 1.31% | viability, T/C (second compound 0.1 µM, first compound 10 µM) 0.84% | viability, T/C (second compound 0.316 µM, first compound 3.16 µM) 3.98% | viability, T/C (second compound 0.316 µM, first compound 10 µM) 0.15% | viability, T/C (second compound 1 µM, first compound 0.0316 µM) 1.55% | viability, T/C (second compound 1 µM, first compound 0.1 µM) 1.77% | viability, T/C (second compound 1 µM, first compound 0.316 µM) 1.31% | viability, T/C (second compound 1 µM, first compound 1 µM) 0.3% | viability, T/C (second compound 1 µM, first compound 3.16 µM) 0.25% | viability, T/C (second compound 1 µM, first compound 10 µM) 0.12% | viability, T/C (second compound 3.16 µM, first compound 0.0316 µM) 0.38% | viability, T/C (second compound 3.16 µM, first compound 0.1 µM) 0.95% | viability, T/C (second compound 3.16 µM, first compound 0.316 µM) 0.9% | viability, T/C (second compound 3.16 µM, first compound 1 µM) 0.39% | viability, T/C (second compound 3.16 µM, first compound 3.16 µM) 0.52% | viability, T/C (second compound 3.16 µM, first compound 10 µM) 0.62% | viability, T/C (second compound 10 µM, first compound 0.0316 µM) 0.58% | viability, T/C (second compound 10 µM, first compound 0.1 µM) 0.42% | viability, T/C (second compound 10 µM, first compound 0.316 µM) 0.45% | viability, T/C (second compound 10 µM, first compound 1 µM) 0.3% | viability, T/C (second compound 10 µM, first compound 3.16 µM) 0.62% | viability, T/C (second compound 10 µM, first compound 10 µM) 0.76%
